Our source for the IC50 values is patent publication US6689806B1, “Indolinone compounds as kinase inhibitors” (Sugen, Inc., priority 1999, dated 2004).

Broadly, the IC50 is the concentration needed to halve the response being measured.

The target in test [1] is T1, Her2 (Homo sapiens, UniProt P04626).
T1 construct: fused on or other part: P00533 (Epidermal growth factor receptor)
The test is described as follows: HER-2 ELISA: EGF receptor-HER2 chimeric receptor assay in whole cells (HER2 kinase). The note with it: NIH3T3 cells with EGFR/HER2 chimeric receptor, phosphotyrosine ELISA. In kind it is cell-based. How it is done: Assay 1: EGF Receptor-HER2 Chimeric Receptor Assay In Whole Cells.
HER2 kinase activity in whole EGFR-NIH3T3 cells was measured as described below:
1. An NIH3T3 cell line overexpressing a chimeric receptor containing the EGFR extracellular domain and intracellular HER2 kinase domain can be used for this assay.
3. Resuspend cells in seeding medium (DMEM, 0.5% bovine serum), and count the cells using trypan blue. Viability above 90% is acceptable. Seed cells in DMEM medium (0.5% bovine serum) at a density of 10,000 cells per well, 100 μL per well, in a 96 well microtiter plate. Incubate seeded cells in 5% CO2 at 37° C. for about 40 hours.
1. Check seeded cells for contamination using an inverted microscope. Dilute drug stock (10 mg/mL in DMSO) 1:10 in DMEM medium, then transfer 5 μL to a TBST well for a final drug dilution of 1:200 and a final DMSO concentration of 1%. Control wells receive DMSO alone. Incubate in 5% CO2 at 37° C. for two hours.
2. Prepare EGF ligand: dilute stock EGF in DMEM so that upon transfer of 10 μL dilute EGF (1:12 dilution), 100 nM final concentration is attained.
4. After 120 minutes incubation with drug, add prepared […] ligand to cells, 10 μL per well, to a final concentration of 100 nM. Control wells receive DMEM alone. Incubate, shaking, at room temperature, for 5 minutes.
5. Remove drug, EGF, and DMEM. Wash cells twice with PBS. Transfer HNTG* to cells, 100 μL per well. Place on ice for 5 minutes. Meanwhile, remove blocking buffer from other ELISA plate and wash with TBST as described above.
6. With a pipette tip securely fitted to a micropipettor, scrape cells from plate and homogenize cell material by repeatedly aspirating and dispensing the HNTG* lysis buffer. Transfer lysate to a coated, blocked, and washed ELISA plate. Incubate shaking at room temperature for one hour.
7. Remove lysate and wash 4 times with TBST. Transfer freshly diluted anti-Ptyr antibody to ELISA plate at 100 μL per well. Incubate shaking at room temperature for 30 minutes in the presence of the anti-Ptyr antiserum (1:3000 dilution in TBST).
8. Remove the anti-Ptyr antibody and wash 4 times with TBST. Transfer the freshly diluted TAGO anti-rabbit IgG antibody to the ELISA plate at 100 μL per well. Incubate shaking at room temperature for 30 minutes (anti-rabbit IgG antibody: 1:3000 dilution in TBST).
9. Remove TAGO detection antibody and wash 4 times with TBST. Transfer freshly prepared ABTS/H2O2 solution to ELISA plate, 100 μL per well. Incubate shaking at room temperature for 20 minutes. (ABTS/H2O2 solution: 1.0 μL 30% H2O2 in 10 mL ABTS stock).
10. Stop reaction by adding 50 μL 5N H2SO4 (optional), and determine O.D. at 410 nm.
11. The maximal phosphotyrosine signal is determined by subtracting the value of the negative controls from the positive controls. The percent inhibition of phosphotyrosine content for extract-containing wells is then calculated, after subtraction of the negative controls.
Background: ELISA stands for enzyme-linked immunosorbent assay.

The target in test [2] is T2, PDGFR (Homo sapiens, UniProt P09619). The test is described as follows: Biochemical PDGFR assay (ELISA). The arrangement: expressed in transfected cells; host or cells: NIH 3T3. How it is done: This assay measures the in vitro kinase activity of PDGFR using ELISA.
6. PDGFR-β expressing NlH 3T3 cell lysate.
1. Coat Corning 96 well ELISA plates with 0.5 μg 28D4C10 in 100 μL PBS per well, store overnight at 4° C.
5. Dilute lysate in HNTG (10 μg lysate/100 μL HNTG)
(§1) 6. Add 100 μL of diluted lysate to each well. Shake at room temperature for 60 min.
8. Add 80 μL working kinase buffer mix to ELISA plate containing captured PDGFR.
9. Dilute test compound 1:10 in TBS in 96-well polypropylene plates (i.e., 10 μL compound+90 μL TBS).
10. Add 10 μL diluted test compound to ELISA plate.
11. Incubate for 30 minutes while shaking at room temperature.
12. Add 10 μL ATP directly to all wells except negative control well (final well volume should be approximately 100 μL with 20 μM ATP in each well.) Incubate 30 minutes while shaking.
13. After 30 minutes, stop reaction by adding 10 μL of 200 mM EDTA (pH 8.0) to each well.
(§2) 15. Add 100 μL anti-phosphotyrosine (1:3000 dilution in TBST) per well. Incubate 30-45 min. at room temperature, with shaking.
(§3) 17. Add 100 μL Biosource Goat anti-rabbit IgG peroxidase conjugate (1:2000 dilution in TBST) to each well. Incubate 30 min. at room temperature, with shaking.
(§4) 19. Add 100 μL of ABTS/H2O2 solution to each well.
22. Read assay on Dynatech MR7000 ELISA reader: test filter: 410 nM, reference filter: 630 nM.

Test [3] has as its target T3, EGFR (Homo sapiens, UniProt P00533). In words: Biochemical EGFR assay (ELISA). The arrangement: A431 cell lysate; endogenous in cells; host or cells: A431. How it is done:
This assay measures the in vitro kinase activity of EGFR using ELISA.
1. Coat Coming 96 well ELISA plates with 0.5 μg SUMOl in 100 μL PBS per well, store overnight at 4° C.
5. Dilute lysate in PBS (7 μg lysate/100 μL PBS).
as §1
8. Add 120 μL TBS to ELISA plate containing captured EGFR.
9. Dilute test compound 1:10 in TBS in 96-well polypropylene plates (ie. 10 μL compound+90 μL TBS).
10. Add 13.5 μL diluted test compound to ELISA plate.
13. After 5 minutes, stop reaction by adding 16.5 μL of 200 mM EDTA (pH 8.0) to each well, shaking continuously. After the EDTA has been added, shake for 1 mm.
as §2, §3, §4
22. Read assay on Dynatech MR7000 ELISA reader. Test Filter: 410 nM Reference Filter: 630 Nm.

For test [4], the target named is T1, Her2. In words: EGF-induced Her2-driven BrdU incorporation. Format: cell-based. To be noted: Table 6; 3T3 cells with EGF-R/Her2 chimeric receptor, EGF 2 nM; read-out: Her2-Driven BrdU Incorp. IC50. How it is done:
(§5) The cellular/biologic assays described herein measure the amount of DNA made in response to activation of a test kinase, which is a general measure of a proliferative response. The general procedure for this assay is as follows: a compound is introduced to cells expressing the test kinase, either naturally or recombinantly, for some period of time after which, if the test kinase is a receptor, a ligand known to activate the receptor is added. After incubation at least overnight, a DNA labeling reagent such as Bromodeoxy-uridine (BrdU) or 3H-thymidine is added. The amount of labeled DNA is detected with either an anti-BrdU antibody or by measuring radioactivity and is compared to control cells not contacted with a test compound.
EGF-Induced Her2-Driven BrdU Incorporation
(8) 3T3 cell line engineered to express a chimeric receptor having the extra-cellular domain of EGF-R and the intra-cellular domain of Her2.
(1) Cells are seeded at 8000 cells/well in DMEM, 10% CS, 2 mM Gln in a 96-well plate. Cells are incubated overnight at 37° C. in 5% CO2.
(§6) (2) After 24 hours, the cells are washed with PBS, and then are serum starved in serum free medium (0% CS DMEM with 0.1% BSA) for 24 hours.
(3) On day 3, ligand (EGF=2 nM, prepared in DMEM with 0.1% BSA) and test compounds are added to the cells simultaneously. The negative control wells receive serum free DMEM with 0.1% BSA only; the positive control cells receive the ligand (EGF) but no test compound. Test compounds are prepared in serum free DMEM with ligand in a 96 well plate, and serially diluted for 7 test concentrations.
(4) After 20 hours of ligand activation, diluted BrdU labeling reagent (1:100 in DMEM, 0.1% BSA) is added and the cells are incubated with BrdU (final concentration=[…]) for 1.5 hours.
(§7) (10) The absorbance of the samples are measured at 410 nm (in “dual wavelength” mode with a filter reading at 490 nm, as a reference wavelength) on a Dynatech ELISA plate reader.
A general note: Incorporation of labelled thymidine or its analogues reports DNA synthesis.

The target of test [5] is T3, EGFR. The test is described as follows: EGF-induced BrdU incorporation assay. In kind it is cell-based. To be noted: Table 6; 3T3 cells expressing human EGF-R, EGF 2 nM; read-out: EGF-Driven BrdU Incorp. IC50. The arrangement: expressed in transfected cells; host or cells: 3T3. As to the method: as §5
EGF-Induced BrdU Incorporation Assay
(8) 3T3 cell line genetically engineered to express human EGF-R.
(1) Cells are seeded at 8000 cells/well in 10% CS, 2 mM Gin in DMEM, in a 96 well plate. Cells are incubated overnight at 37° C. in 5% CO2.
as §6
(3) On day 3, ligand (EGF, 2 nM, prepared in DMEM with 0.1%/BSA) and test compounds are added to the cells simultaneously. The negative control wells receive serum free DMEM with 0.1% BSA only; the positive control cells receive the ligand (EGF) but no test compound. Test compounds are prepared in serum free DMEM with ligand in a 96 well plate, and serially diluted for 7 test concentrations.
(§8) (4) After 20 hours of ligand activation, diluted BrdU labeling reagent (1: 100 in DMEM, 0.1% BSA) is added and the cells are incubated with BrdU (final concentration=10 μM) for 1.5 hours.
as §7

Test [6] concerns the target T2, PDGFR. The test is described as follows: PDGF-induced BrdU incorporation assay. To be noted: Table 6; 3T3 cells expressing human PDGF-R, PDGF 3.8 nM; read-out: PDGF-Driven BrdU Incorp. IC50. In kind it is cell-based. Set-up: expressed in transfected cells; host or cells: 3T3. How it is done:
as §5
PDGF-Induced BrdU Incorporation Assay
(8) 3T3 cell line genetically engineered to express human PDGF-R.
(1) Cells are seeded at 8000 cells/well in DMEM, 10% CS, 2 mM Gln in a 96 well plate. Cells are incubated overnight at 37° C. in 5% CO2.
as §6
(3) On day 3, ligand (PDGF, 3.8 nM, prepared in DMEM with 0.1% BSA) and test compounds are added to the cells simultaneously. The negative control wells receive serum free DMEM with 0.1% BSA only; the positive control cells receive the ligand (PDGF) but no test compound. Test compounds are prepared in serum free DMEM with ligand in a 96 well plate, and serially diluted for 7 test concentrations.
as §8, §7

The test system of the next test is SKOV3. In words: SKOV3 growth. The note with it: Homo sapiens, SK-OV-3; Table 7; SKOV3 cells. Format: cell-based.
The next test concerns A431. The test is described as follows: A431 growth. Format: cell-based. The note with it: Homo sapiens, A-431; Table 7; A431 cells.
Where [7] appears, read: Table 7, in vitro kinase activity, read-out: EGFr biochem IC50.

T3 sequence (P00533 25-1210): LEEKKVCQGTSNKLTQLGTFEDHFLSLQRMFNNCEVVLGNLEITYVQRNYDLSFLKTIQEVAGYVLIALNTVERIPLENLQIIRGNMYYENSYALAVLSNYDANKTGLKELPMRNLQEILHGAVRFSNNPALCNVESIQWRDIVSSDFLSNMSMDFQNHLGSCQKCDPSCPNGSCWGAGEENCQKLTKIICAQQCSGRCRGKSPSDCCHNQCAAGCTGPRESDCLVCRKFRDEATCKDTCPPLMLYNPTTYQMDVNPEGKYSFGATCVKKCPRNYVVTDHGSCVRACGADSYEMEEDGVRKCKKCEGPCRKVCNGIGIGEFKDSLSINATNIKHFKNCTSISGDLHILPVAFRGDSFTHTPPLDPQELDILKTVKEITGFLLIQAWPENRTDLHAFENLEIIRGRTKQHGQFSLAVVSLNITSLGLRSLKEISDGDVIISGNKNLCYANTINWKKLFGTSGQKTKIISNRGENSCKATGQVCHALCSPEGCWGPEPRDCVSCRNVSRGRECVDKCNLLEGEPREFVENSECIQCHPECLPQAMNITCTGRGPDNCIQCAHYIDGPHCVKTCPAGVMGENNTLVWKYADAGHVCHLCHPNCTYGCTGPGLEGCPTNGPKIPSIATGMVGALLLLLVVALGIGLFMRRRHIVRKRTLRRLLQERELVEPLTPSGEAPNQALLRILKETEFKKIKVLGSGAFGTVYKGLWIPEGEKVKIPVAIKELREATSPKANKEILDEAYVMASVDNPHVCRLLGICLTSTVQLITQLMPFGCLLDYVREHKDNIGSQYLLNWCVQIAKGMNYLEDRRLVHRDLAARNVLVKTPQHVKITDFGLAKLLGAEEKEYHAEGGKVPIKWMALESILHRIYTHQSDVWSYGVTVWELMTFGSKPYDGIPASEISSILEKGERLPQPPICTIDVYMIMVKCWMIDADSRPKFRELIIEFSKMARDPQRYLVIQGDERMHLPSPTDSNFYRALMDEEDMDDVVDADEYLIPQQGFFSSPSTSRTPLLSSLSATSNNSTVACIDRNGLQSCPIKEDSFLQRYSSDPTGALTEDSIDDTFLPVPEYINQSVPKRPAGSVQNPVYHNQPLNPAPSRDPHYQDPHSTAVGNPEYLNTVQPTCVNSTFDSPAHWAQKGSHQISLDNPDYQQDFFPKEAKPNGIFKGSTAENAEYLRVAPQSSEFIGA
T2 sequence (P09619 33-1106): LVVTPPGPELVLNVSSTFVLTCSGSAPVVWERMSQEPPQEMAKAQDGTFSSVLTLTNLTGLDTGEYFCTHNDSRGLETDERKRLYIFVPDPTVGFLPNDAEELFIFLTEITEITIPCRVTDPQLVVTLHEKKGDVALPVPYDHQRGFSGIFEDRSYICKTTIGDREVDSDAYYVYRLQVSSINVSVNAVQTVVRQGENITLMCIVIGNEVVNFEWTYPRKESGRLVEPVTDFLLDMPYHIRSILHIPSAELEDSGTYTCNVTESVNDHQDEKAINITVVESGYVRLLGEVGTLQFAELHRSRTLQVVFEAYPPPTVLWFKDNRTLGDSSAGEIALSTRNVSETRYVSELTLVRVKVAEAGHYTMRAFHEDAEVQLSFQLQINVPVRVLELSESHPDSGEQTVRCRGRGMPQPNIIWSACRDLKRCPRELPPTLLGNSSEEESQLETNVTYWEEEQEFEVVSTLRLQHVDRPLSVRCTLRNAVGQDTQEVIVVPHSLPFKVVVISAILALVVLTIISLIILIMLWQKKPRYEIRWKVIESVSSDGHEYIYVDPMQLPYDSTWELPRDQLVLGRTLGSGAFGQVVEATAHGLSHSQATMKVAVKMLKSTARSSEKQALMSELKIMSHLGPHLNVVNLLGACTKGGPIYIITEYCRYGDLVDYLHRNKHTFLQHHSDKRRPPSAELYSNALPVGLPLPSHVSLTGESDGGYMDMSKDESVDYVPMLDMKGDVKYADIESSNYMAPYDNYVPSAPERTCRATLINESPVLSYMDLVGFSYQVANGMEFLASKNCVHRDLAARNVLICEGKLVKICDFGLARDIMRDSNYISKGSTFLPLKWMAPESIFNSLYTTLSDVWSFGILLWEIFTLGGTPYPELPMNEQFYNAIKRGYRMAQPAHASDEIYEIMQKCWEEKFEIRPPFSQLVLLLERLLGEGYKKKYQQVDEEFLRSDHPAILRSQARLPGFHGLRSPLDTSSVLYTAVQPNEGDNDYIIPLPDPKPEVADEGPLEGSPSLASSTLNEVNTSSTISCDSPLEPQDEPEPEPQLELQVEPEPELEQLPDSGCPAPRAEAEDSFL
T1 sequence (P04626 676-1255 limits assumed): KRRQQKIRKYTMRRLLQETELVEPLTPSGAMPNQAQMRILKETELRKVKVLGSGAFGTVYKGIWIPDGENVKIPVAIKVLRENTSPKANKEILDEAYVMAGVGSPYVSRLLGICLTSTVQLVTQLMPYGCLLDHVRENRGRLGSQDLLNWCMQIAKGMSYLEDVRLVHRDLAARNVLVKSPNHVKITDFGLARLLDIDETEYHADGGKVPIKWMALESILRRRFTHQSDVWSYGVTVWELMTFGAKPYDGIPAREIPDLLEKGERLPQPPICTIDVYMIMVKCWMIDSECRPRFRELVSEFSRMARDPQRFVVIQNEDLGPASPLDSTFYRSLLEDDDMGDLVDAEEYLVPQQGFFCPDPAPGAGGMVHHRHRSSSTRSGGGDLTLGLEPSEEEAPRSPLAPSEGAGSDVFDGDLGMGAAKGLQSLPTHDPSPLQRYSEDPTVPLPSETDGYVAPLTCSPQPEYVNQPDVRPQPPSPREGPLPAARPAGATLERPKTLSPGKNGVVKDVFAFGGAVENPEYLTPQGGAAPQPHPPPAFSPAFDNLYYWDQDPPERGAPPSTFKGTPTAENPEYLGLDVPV

For the compound `Cc1[nH]c(C=C2C(=O)Nc3cc(-c4cccs4)ccc32)c(C)c1CCCN(C)C` [AHI-8, 3-[4-(3-Dimethylaminopropyl)-3,5-dimethyl-1H-pyrrol-2-ylmethylene]-6-thiophen-2-yl-1,3-dihydroindol-2-one], the concentration for half-maximal inhibition (IC50) was 71 µM on Her2 [1] (Table 4); 0.52 µM at PDGFR [2] (Table 4, in vitro kinase activity, read-out: bio PDGFr IC50); over 100 µM at EGFR [3] (Table 4, in vitro kinase activity, read-out: bio EGFr IC50).

As to `COc1ccc(/C(=C2/C(=O)Nc3ccccc32)c2[nH]c(C)cc2C)cc1` [DAI-I, 3-[(3,5-Dimethyl-1H-pyrrol-2-yl)-(4-methoxy-phenyl)-methylene]-1,3-dihydro-indol-2-one], the IC50 at Her2 [4] is 46.9 µM; at EGFR [5], over 50 µM; on PDGFR [6], 0.77 µM.

Turning to `COc1ccc(/C(=C2/C(=O)Nc3ccccc32)c2[nH]c(C)cc2C)cc1OC` [DAI-II, 3-[(3,4-dimethoxy-phenyl)-(3,5-dimethyl-1H-pyrrol-2-yl)-methylene]-1,3-dihydro-indol-2-one], the IC50 was found to be 30.2 µM at Her2 [4], 38.3 µM at EGFR [5] and 0.26 µM on PDGFR [6].

As for `O=C1Cc2c(CCOC(=S)Nc3ccccc3)cccc2N1` [IN-010, Phenyl-thiocarbamic acid O-[2-(2-oxo-2,3-dihydro-1H-indol-4-yl)-ethyl]ester], the IC50 against Her2 [1] (Table 7) is over 100 µM; in the test with SKOV3 it was over 25 µM; in the test on A431 it was over 25 µM; at EGFR [3] (setting [7]), over 100 µM.

With `O=C1Cc2c(CCOC(=O)Nc3ccccc3)cccc2N1` [IN-011, Phenyl-carbamic acid 2-(2-oxo-2,3-dihydro-1H-indol-4-yl)-ethyl ester], the IC50 is over 100 µM against Her2 [1] (Table 7), over 50 µM in the test on SKOV3, over 50 µM in the test with A431 and over 100 µM on EGFR [3] (setting [7]).

Regarding `CC(C)(C)NC(=O)OCCc1cccc2c1CC(=O)N2` [IN-012, tert-Butyl-carbamic acid 2-(2-oxo-2,3-dihydro-1H-indol-4-yl)-ethyl ester], the IC50 against Her2 [1] (Table 7) is over 100 µM; in the test with SKOV3 it was over 50 µM; in the test with A431, over 50 µM; at EGFR [3] (setting [7]), over 100 µM.

Consider `COc1ccc(OCCc2cccc3c2CC(=O)N3)cc1` [IN-017, 4-[2-(4-Methoxy-phenoxy)-ethyl]-1,3-dihydro-indol-2-one], for which the IC50 is over 100 µM against Her2 [1] (Table 7), over 50 µM in the test on SKOV3 and over 100 µM on EGFR [3] (setting [7]).

In the case of `CC(C)NC(=O)OCCc1cccc2c1CC(=O)N2` [IN-025, Isopropyl-carbamic acid 2-(2-oxo-2,3-dihydro-1H-indol-4-yl)-ethyl ester], the IC50 is 3.9 µM against Her2 [1] (Table 7); 70.8 µM at PDGFR [2] (Table 7, in vitro kinase activity, read-out: PDGFr biochem IC50); over 100 µM on EGFR [3] (setting [7]).
